From ChEMBL document CHEMBL1201862, “PubChem BioAssay data set” (2004)
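96-well plates; 48 h exposure; 5 concentrations. Endpoints by linear interpolation between flanking doses. Not reached: highest tested concentration assigned. The concentration for 50% growth inhibition is given as GI50.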 The source made the active and inactive calls. Cut-off read from the data, not from the text of the source: active = GI50 up to about 1.1 µM and inactive = higher.

Assays:
Test in all cases: NCI-60 cell line screen, 48 h
[1] = system: HOP-62
[2] = system: OVCAR-4
[3] = system: UO-31
[4] = system: SK-MEL-28
[5] = system: SF-539
[6] = system: SF-268
[7] = system: T47D
[8] = system: NCI-H522
[9] = system: U-251
[10] = system: MOLT-4
[11] = system: OVCAR-5
[12] = system: ACHN
[13] = system: NCI/ADR-RES
[14] = system: BT-549
[15] = system: SK-MEL-5
[16] = system: SW-620
[17] = system: SF-295
[18] = system: UACC-62
[19] = system: OVCAR-3
[20] = system: EKVX

| Structure (SMILES) | GI50 [1] | GI50 [2] | GI50 [3] | GI50 [4] | GI50 [5] | GI50 [6] | GI50 [7] | GI50 [8] | GI50 [9] | GI50 [10] | GI50 [11] | GI50 [12] | GI50 [13] | GI50 [14] | GI50 [15] | GI50 [16] | GI50 [17] | GI50 [18] | GI50 [19] | GI50 [20] |
| --- | --- | --- | --- | --- | --- | --- | --- | --- | --- | --- | --- | --- | --- | --- | --- | --- | --- | --- | --- | --- |
| Cc1cc(S(=O)(=O)Nc2nc(N)n(C)n2)c(S)cc1Cl | > 10 µM (inactive) | > 10 µM (inactive) | > 10 µM (inactive) | > 10 µM (inactive) | > 10 µM (inactive) | > 10 µM (inactive) | > 10 µM (inactive) | > 10 µM (inactive) | > 10 µM (inactive) | > 10 µM (inactive) | > 10 µM (inactive) | > 10 µM (inactive) | > 10 µM (inactive) | > 10 µM (inactive) | > 10 µM (inactive) | > 10 µM (inactive) | > 10 µM (inactive) | > 10 µM (inactive) | > 10 µM (inactive) | > 10 µM (inactive) |
| COC12OC3CC4(C)C(=CC3OC(OC(C)C1O)C2O)CCC1C4CCC2(C)C(c3ccc(=O)oc3)CCC12O (stereo not given) | 0.00137 µM (active) | 0.00126 µM (active) | 0.0017 µM (active) | 0.00385 µM (active) | 0.00126 µM (active) | 0.00105 µM (active) | 0.00227 µM (active) | < 0.001 µM (active) | 0.00142 µM (active) | 0.00105 µM (active) | 0.00132 µM (active) | 0.00181 µM (active) | 0.00151 µM (active) | 0.00143 µM (active) | < 0.001 µM (active) | 0.00178 µM (active) | 0.00176 µM (active) | 0.00233 µM (active) | 0.00155 µM (active) | < 0.001 µM (active) |
| N#CC1=C(N2CCOCC2)CCC1 | > 100 µM (inactive) | > 100 µM (inactive) | > 100 µM (inactive) | – | > 100 µM (inactive) | > 100 µM (inactive) | > 100 µM (inactive) | > 100 µM (inactive) | > 100 µM (inactive) | > 100 µM (inactive) | > 100 µM (inactive) | > 100 µM (inactive) | > 100 µM (inactive) | > 100 µM (inactive) | > 100 µM (inactive) | > 100 µM (inactive) | > 100 µM (inactive) | > 100 µM (inactive) | > 100 µM (inactive) | > 100 µM (inactive) |
| O=C(/C=C/c1ccco1)c1cccc(C(=O)/C=C/c2ccco2)n1 | 17.1 µM (inactive) | > 73.5 µM (inactive) | 6.43 µM (inactive) | 15.4 µM (inactive) | 5.01 µM (inactive) | 5.24 µM (inactive) | 6.17 µM (inactive) | 3.9 µM (inactive) | 5.22 µM (inactive) | 2.19 µM (inactive) | 26.1 µM (inactive) | 21.9 µM (inactive) | 24.2 µM (inactive) | 13 µM (inactive) | 48.6 µM (inactive) | 3.2 µM (inactive) | 40.1 µM (inactive) | 27.8 µM (inactive) | 19.4 µM (inactive) | 57.3 µM (inactive) |
| OCCCc1ccc2c(c1)[C@H](CO)[C@@H](c1ccc(O)cc1)O2 | > 100 µM (inactive) | 16.8 µM (inactive) | 68.2 µM (inactive) | 36.4 µM (inactive) | > 100 µM (inactive) | > 100 µM (inactive) | 39.2 µM (inactive) | > 100 µM (inactive) | > 100 µM (inactive) | 19.5 µM (inactive) | > 100 µM (inactive) | > 100 µM (inactive) | > 100 µM (inactive) | 20.4 µM (inactive) | 18.6 µM (inactive) | > 100 µM (inactive) | > 100 µM (inactive) | 51.9 µM (inactive) | > 100 µM (inactive) | > 100 µM (inactive) |
| C=C(CC)C(=O)c1ccc(OCC(=O)O)c(Cl)c1Cl [ETHACRYNIC ACID] | 20.5 µM (inactive) | 20 µM (inactive) | 19.5 µM (inactive) | 17.6 µM (inactive) | 7.87 µM (inactive) | 16.7 µM (inactive) | 9.35 µM (inactive) | 14.8 µM (inactive) | 16 µM (inactive) | 20.2 µM (inactive) | 29.8 µM (inactive) | 26.8 µM (inactive) | 26.7 µM (inactive) | 4.99 µM (inactive) | 25.8 µM (inactive) | 19.3 µM (inactive) | 35.6 µM (inactive) | 15.2 µM (inactive) | 16.1 µM (inactive) | 17.5 µM (inactive) |
| O=[N+]([O-])c1cc(Cl)ccc1Sc1ccccc1 | > 100 µM (inactive) | > 100 µM (inactive) | 23.6 µM (inactive) | > 100 µM (inactive) | > 100 µM (inactive) | > 100 µM (inactive) | 69.5 µM (inactive) | > 100 µM (inactive) | 5.89 µM (inactive) | 56.1 µM (inactive) | > 100 µM (inactive) | > 100 µM (inactive) | > 100 µM (inactive) | 81.5 µM (inactive) | 75.2 µM (inactive) | > 100 µM (inactive) | > 100 µM (inactive) | > 100 µM (inactive) | > 100 µM (inactive) | > 100 µM (inactive) |
| CC[N+]1(C)CCC(O)(/C=C/c2ccccc2)C(C(=O)/C=C/c2ccccc2)C1 (stereo not given) | 19.6 µM (inactive) | 13.7 µM (inactive) | 15.6 µM (inactive) | 7.4 µM (inactive) | 7.43 µM (inactive) | 15.6 µM (inactive) | 15.3 µM (inactive) | 1.99 µM (inactive) | 8 µM (inactive) | 2.13 µM (inactive) | 18.1 µM (inactive) | 11.1 µM (inactive) | 30.6 µM (inactive) | 15.7 µM (inactive) | 16.6 µM (inactive) | 2.45 µM (inactive) | 16.7 µM (inactive) | 16.9 µM (inactive) | 9.04 µM (inactive) | 22.5 µM (inactive) |
| Cc1ccccc1C1=C/C(=C(\SS/C(C(=O)c2ccc(OCC(=O)O)c(Cl)c2Cl)=C2\C=C(c3ccccc3C)SS2)C(=O)c2ccc(OCC(=O)O)c(Cl)c2Cl)SS1 | 51.6 µM (inactive) | 21.1 µM (inactive) | 20.9 µM (inactive) | 26.4 µM (inactive) | 17.2 µM (inactive) | 18 µM (inactive) | 5.16 µM (inactive) | 4.09 µM (inactive) | 8.43 µM (inactive) | 19.9 µM (inactive) | 51.1 µM (inactive) | 23.2 µM (inactive) | 63 µM (inactive) | 33.3 µM (inactive) | 26.3 µM (inactive) | 26.5 µM (inactive) | 31.3 µM (inactive) | 18 µM (inactive) | 16.5 µM (inactive) | 37.8 µM (inactive) |
| COc1cccc(-c2cc(O)c3cc(N4CCOCC4)ccc3n2)c1 | 0.0586 µM (active) | 6.76 µM (inactive) | 0.0372 µM (active) | 0.0748 µM (active) | 0.0217 µM (active) | 0.0552 µM (active) | > 10 µM (inactive) | 0.0158 µM (active) | 0.037 µM (active) | 0.0391 µM (active) | 0.151 µM (active) | 0.0524 µM (active) | 0.0845 µM (active) | 0.964 µM (active) | 0.0231 µM (active) | 0.0324 µM (active) | 0.041 µM (active) | 0.0258 µM (active) | 0.0201 µM (active) | 0.363 µM (active) |
| COc1cc(/C=C2\N=C(c3ccccc3)N(c3nc4ccccc4s3)C2=O)cc(OC)c1OC | 24.4 µM (inactive) | 23.9 µM (inactive) | 58.5 µM (inactive) | 33 µM (inactive) | 32.3 µM (inactive) | 26.5 µM (inactive) | 28.9 µM (inactive) | 13.4 µM (inactive) | 26.1 µM (inactive) | 11.7 µM (inactive) | > 100 µM (inactive) | 20.6 µM (inactive) | 20.4 µM (inactive) | 17.5 µM (inactive) | 49.9 µM (inactive) | 31.3 µM (inactive) | 39.5 µM (inactive) | – | 20 µM (inactive) | 21.8 µM (inactive) |
| CC1(C)N=C(N)N=C(N)N1CCCCc1ccccc1 | 1.18 µM (inactive) | 17.3 µM (inactive) | 64.3 µM (inactive) | 8.59 µM (inactive) | 0.34 µM (active) | < 0.025 µM (active) | 10.4 µM (inactive) | 0.708 µM (active) | 0.209 µM (active) | 0.104 µM (active) | 1.99 µM (inactive) | 1.48 µM (inactive) | > 90.2 µM (inactive) | 2.16 µM (inactive) | 0.59 µM (active) | – | 0.145 µM (active) | 0.453 µM (active) | 0.601 µM (active) | 2.21 µM (inactive) |
| Cc1c(NC(=O)CSC(=S)N2CCN(Cc3ccccc3)CC2)c(=O)n(-c2ccccc2)n1C | > 100 µM (inactive) | > 100 µM (inactive) | > 100 µM (inactive) | > 100 µM (inactive) | > 100 µM (inactive) | > 100 µM (inactive) | > 100 µM (inactive) | > 100 µM (inactive) | > 100 µM (inactive) | > 100 µM (inactive) | > 100 µM (inactive) | > 100 µM (inactive) | > 100 µM (inactive) | > 100 µM (inactive) | > 100 µM (inactive) | > 100 µM (inactive) | > 100 µM (inactive) | – | > 100 µM (inactive) | > 100 µM (inactive) |
| COc1ccc(OC)c(CC2CCc3nc(N)nc(N)c3C2)c1 (stereo not given) | 4.27 µM (inactive) | 28.8 µM (inactive) | 4.85 µM (inactive) | 18.8 µM (inactive) | 0.275 µM (active) | < 0.0192 µM (active) | 20.1 µM (inactive) | 0.774 µM (active) | > 49.3 µM (inactive) | 1.52 µM (inactive) | 0.51 µM (active) | < 0.0284 µM (active) | 2.8 µM (inactive) | 0.146 µM (active) | < 0.019 µM (active) | 0.286 µM (active) | – | < 0.0133 µM (active) | 15 µM (inactive) | 15.6 µM (inactive) |
